Data taken from US20230392179A1 (SOOCHOW UNIVERSITY, priority 2021, published 2023).

Tested on: Mycobacterium smegmatis containing plasmid PMV261-Kana^R-65S-RecA intein
Test: Intein splicing inhibitor screening system: growth (OD600) of Mycobacterium smegmatis carrying Kana^R-65S-RecA intein in kanamycin medium
Conditions: 20 μM cisplatin, kanamycin 50 μg/mL plus hygromycin, 37° C., 100 h

## N.N.[Cl][Pt][Cl] [cisplatin]
  inhibition rate of growth of Mycobacterium smegmatis containing plasmid PMV261-Kana^R-65S-RecA intein: 62%
